Data reported in paper PMC6044741 (ACS Omega, 2018).
Entries after “also recorded” stand apart in the source; their conditions may differ.

Target: T1, human RORγ hybrids of both isoforms 1 and 2 (Homo sapiens, UniProt P51449)
T1 sequence (P51449 259-518): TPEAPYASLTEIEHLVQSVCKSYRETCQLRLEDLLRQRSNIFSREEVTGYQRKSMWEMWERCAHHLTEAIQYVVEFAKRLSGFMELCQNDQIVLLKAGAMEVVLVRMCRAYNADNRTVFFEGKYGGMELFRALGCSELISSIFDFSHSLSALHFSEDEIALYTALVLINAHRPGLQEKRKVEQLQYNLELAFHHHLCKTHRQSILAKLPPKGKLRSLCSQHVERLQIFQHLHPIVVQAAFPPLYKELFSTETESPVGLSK
Experiment: Human RAR-related Orphan Receptor Gamma Reporter Assay System
Format: cell-based
Conditions: not given

Row | SMILES | IC50
1 | CC1(c2cccc([N+](=O)[O-])c2)Nc2ccccc2C(=O)N1N=Cc1cc(Br)cc(Br)c1O (stereo not drawn) [Compound 34] | 10 µM

Same assay, conditions: result in words

Row | SMILES | RORγt activity in experimental testing (active / inactive)
2 | Cc1cc(C=C2C(=O)NC(=S)N(c3cccc(Br)c3)C2=O)c(C)n1-c1ccc(S(N)(=O)=O)cc1 [Compound 2] | active
3 | Cc1ccccc1-c1cc(C(=O)N2CCN(c3cccc(C(F)(F)F)c3)CC2)c2ccccc2n1 [Compound 12] | less active
4 | Cc1ccc(-c2cc(C(=O)N3CCN(c4cccc(C(F)(F)F)c4)CC3)c3ccccc3n2)o1 [Compound 13] | less active
5 | Cc1ccccc1-c1cc(C(=O)N2CCN(c3ccc([N+](=O)[O-])cc3)CC2)c2ccccc2n1 [Compound 16] | either insoluble or inactive
6 | Cc1ccc(-c2cc(C(=O)N3CCN(c4ccc(F)cc4)CC3)c3ccccc3n2)cc1 [Compound 17] | either insoluble or inactive; also recorded: inactivity
7 | O=C(COC(=O)c1cccc(N2C(=O)C3C4c5ccccc5C(c5ccccc54)C3C2=O)c1)c1ccccc1 (stereo not drawn) [Compound 18] | activity
8 | O=C(COC(=O)c1cccc(N2C(=O)C3C4c5ccccc5C(c5ccccc54)C3C2=O)c1)c1ccc(Cl)cc1 (stereo not drawn) [Compound 19] | activity
9 | O=C(Oc1ccc(N2C(=O)C3C4c5ccccc5C(c5ccccc54)C3C2=O)cc1)c1cccc([N+](=O)[O-])c1 (stereo not drawn) [Compound 20] | inactive
10 | O=C(O)c1ccc(NC(=O)c2cccc(N3C(=O)C4C5c6ccccc6C(c6ccccc65)C4C3=O)c2)cc1 (stereo not drawn) [Compound 21] | inactive
11 | CC1(c2cccc([N+](=O)[O-])c2)Nc2ccccc2C(=O)N1N=Cc1cc(Br)cc(Br)c1O (stereo not drawn) [Compound 34] | not a particularly potent inverse agonist

Tested on: not given
Experiment: not given
Conditions: listed 15.11.2017 in the ChEMBL; cited from earlier work

Row | SMILES | log P
12 | CC(C)CN(Cc1ccc(F)cc1)S(=O)(=O)c1ccc(NC2CCN(S(C)(=O)=O)CC2)nc1 [Compound 3QQ, N-(4-fluorobenzyl)-N-(2-methylpropyl)-6-{[1-(methylsulfonyl)piperidin-4-yl]amino}pyridine-3-sulfonamide] | 2.3
